According to patent US20140213538A1, “LYSOPHOSPHATIDIC ACID RECEPTOR ANTAGONISTS” (InterMune, Inc., priority 2013, published 2014):

Key:
Format in all cases: cell-based
LPA1 [1] = target: T1, LPA1 (Homo sapiens, UniProt Q92633); assay: Ca Flux LPA1 assay; set-up: the full-length cDNA for human LPA1 is obtained by PCR of the reverse transcription reaction; expressed in transfected cells
LPA/S1P GPCR of interest = target: T2, LPA/S1P GPCR of interest (Homo sapiens, UniProt Q92633); assay: Beta-Arrestin based assay (PathHunter)
T2 construct: host or cells: CHO
Procedure, shortened: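 EA Parental CHO cells (DiscoverX) were transfected with FuGENE (Roche) using CMV promoter-driven DNA constructs encoding the LPA/S1P GPCR of interest fused to a ProLink tag. Beta-arrestin recruitment in agonist mode was assessed 24-48 hrs later with PathHunter kits. Tests ran in quadruplicate in white 384 well plates, and end point luminescence was fit to a 4 parameter logistic function.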

LPA1 [2] = target: T1, LPA1; assay: LPA1 Migration Assay (Oris); set-up: host or cells: primary fibroblasts (lung, dermal), HFL-1, 3T3 and CHO cells expressing LPA1R; conditions: read-out: Cell Migration EC50
Procedure, shortened: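 Oris exclusion-zone migration of LPA1R-expressing cells (primary lung/dermal fibroblasts, HFL-1, 3T3, CHO), Cell Tracker Green-loaded and serum-starved 12-24 h, toward LPA or serum. Fixed cells in the detection zone were counted by high-content imaging, and cell number vs. concentration was fitted to a 4-parameter logistic.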

T1 sequence (Q92633 whole entry): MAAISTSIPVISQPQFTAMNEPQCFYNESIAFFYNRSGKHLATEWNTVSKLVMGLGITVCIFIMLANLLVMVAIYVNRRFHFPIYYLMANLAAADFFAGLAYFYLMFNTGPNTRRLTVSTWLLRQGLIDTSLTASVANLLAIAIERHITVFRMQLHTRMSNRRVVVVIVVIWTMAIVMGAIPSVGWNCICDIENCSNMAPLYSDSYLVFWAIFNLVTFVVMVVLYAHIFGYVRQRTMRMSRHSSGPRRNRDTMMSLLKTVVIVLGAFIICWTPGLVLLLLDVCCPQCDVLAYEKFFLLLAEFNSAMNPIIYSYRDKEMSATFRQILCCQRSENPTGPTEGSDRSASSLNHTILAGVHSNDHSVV
T2 sequence (Q92633 whole entry): as above

| SMILES | IC50 (LPA1 [1]) [nM] | EC50 (LPA/S1P GPCR of interest) [nM] | EC50 (LPA1 [2]) [nM] |
| --- | --- | --- | --- |
| Cc1noc(-c2ccc(-c3ccc(C4(C(=O)O)CC4(F)F)cc3)cc2)c1NC(=O)O[C@H](C)c1ccccc1 (stereo partly drawn) [IT172] | 50 to 500 | < 50 | < 50 |
| C[C@@H](OC(=O)Nc1c(-c2cc3sc(-c4cc(F)c(C5(C(=O)O)CC5)c(F)c4)cc3s2)cnn1C)c1ccccc1 [IT261] | > 500 | < 50 | 50 to 500 |
| C[C@@H](OC(=O)Nc1c(-c2ccc(-c3ccc(Oc4ccccc4C(=O)O)c(F)c3)cc2)cnn1C)c1ccccc1 [IT446] | < 50 | < 50 | < 50 |
| C[C@@H](OC(=O)Nc1c(-c2ccc(-c3ccc(Oc4ccccc4C(=O)O)cc3)cc2)oc2ccccc12)c1ccccc1 (single isomer, unassigned) [IT495] | > 500 | < 50 | 50 to 500 |
| Cc1noc(-c2ccc(-c3cc(F)c(Oc4nccnc4C(=O)O)c(F)c3)cc2)c1NC(=O)O[C@H](C)c1ccccc1 [IT305] | < 50 | < 50 | < 50 |
| Cc1cc(C2(C(=O)O)CC2)c(F)cc1-c1cc2sc(-c3nnn(C)c3NC(=O)O[C@H](C)c3ccccc3)cc2s1 [IT341] | 50 to 500 | < 50 | 50 to 500 |
| Cc1noc(-c2cc(F)c(-c3cc(F)c(Oc4ncccc4C(=O)O)c(F)c3)cc2F)c1NC(=O)O[C@H](C)c1ccccc1 [IT474] | < 50 | < 50 | < 50 |
| Cc1noc(-c2ccc(-c3nc4sc(C5(C(=O)O)CC5)cc4s3)cc2)c1NC(=O)O[C@H](C)c1ccccc1 [IT111] | 50 to 500 | < 50 | 50 to 500 |
| Cc1nsc(-c2ccc(-c3cc(F)c(Oc4ccccc4C(=O)O)c(F)c3)cc2)c1NC(=O)O[C@H](C)c1ccccc1 [IT448] | 50 to 500 | < 50 | 50 to 500 |
| C[C@@H](OC(=O)Nc1c(-c2ccc(-c3cc(F)c(Oc4cccnc4C(=O)O)c(F)c3)cc2)cnn1C)c1ccccc1 [IT436] | < 50 | < 50 | 50 to 500 |
| C[C@@H](OC(=O)Nc1c(-c2ccc(-c3cc(F)c(Oc4ccncc4C(=O)O)c(F)c3)cc2)nnn1C)c1ccccc1 [IT453] | 50 to 500 | < 50 | < 50 |
| Cc1noc(-c2cc(F)c(-c3ccc(Oc4ccccc4C(=O)O)cc3)cc2F)c1NC(=O)O[C@H](C)c1ccccc1 [IT315] | < 50 | < 50 | < 50 |

Continued, values first:

| IC50 (LPA1 [1]) [nM] | EC50 (LPA/S1P GPCR of interest) [nM] | EC50 (LPA1 [2]) [nM] | SMILES |
| --- | --- | --- | --- |
| 50 to 500 | < 50 | < 50 | C[C@@H](OC(=O)Nc1c(-c2cc(Cl)c(-c3cc4sc(C5(C(=O)O)CC5)cc4s3)cc2F)cnn1C)c1ccccc1 [IT282] |
| < 50 | > 500 | 50 to 500 | C[C@@H](OC(=O)Nc1ocnc1C#Cc1cc2sc(C3(C(=O)O)CC3)cc2s1)c1ccccc1 [IT125] |
| < 50 | < 50 | < 50 | C[C@@H](OC(=O)Nc1c(-c2ccc(-c3cc(F)c(Oc4ncccc4C(=O)O)c(F)c3)cc2)nnn1C)c1ccccc1 [IT306] |
| < 50 | < 50 | 50 to 500 | Cc1c(C2(C(=O)O)CC2)sc2cc(C#Cc3cnn(C)c3NC(=O)O[C@H](C)c3ccccc3)sc12 [IT107] |
| 50 to 500 | < 50 | < 50 | Cc1noc(-c2ccc(-c3cc(F)c(Oc4ccccc4C(=O)O)c(F)c3)cc2)c1NC(=O)O[C@H](C)c1ccccc1 [IT316] |
| 50 to 500 | < 50 | < 50 | Cc1noc(-c2ccc(-c3ccc(C4(C(=O)O)CCC4)cc3)cc2)c1NC(=O)O[C@H](C)c1ccccc1 [IT235] |
| > 500 | > 500 | > 500 | Cc1nnn(-c2cc(F)c(-c3ccc(C4(C(=O)O)CCOCC4)cc3)cc2F)c1NC(=O)O[C@H](C)c1ccccc1 [IT030] |
| < 50 | < 50 | < 50 | C[C@@H](OC(=O)Nc1c(-c2ccc(-c3ccc(Oc4ccccc4C(=O)O)c(F)c3)cc2)nnn1C)c1ccccc1 [IT447] |
| 50 to 500 | < 50 | 50 to 500 | Cc1noc(-c2ccc(-c3ccc(Oc4c(C)nn(C)c4C(=O)O)cc3)cc2)c1NC(=O)O[C@H](C)c1ccccc1 [IT483] |
